Data as given in ChEMBL document CHEMBL3785084, “Rational modification of the lead molecule: Enhancement in the anticancer and dihydrofolate reductase inhibitory activity” (Bioorg Med Chem Lett, 2016).

What was measured:
[1] = tested on: CCRF-CEM; experiment: Cytotoxicity against human CCRF-CEM cells assessed as cell growth at 10^-5 M after 48 hrs by sulforhodamine B assay; type: functional; conditions: read-out: Activity
[2] = Cytotoxicity against human HL-60(TB) cells assessed as cell growth at 10^-5 M after 48 hrs by sulforhodamine B assay; type: functional; conditions: HL-60, 48 h, read-out: Activity
[3] = tested on: K562; experiment: Cytotoxicity against human K562 cells assessed as cell growth at 10^-5 M after 48 hrs by sulforhodamine B assay; type: functional; conditions: K562, 48 h, read-out: Activity
[4] = Cytotoxicity against human MOLT4 cells assessed as cell growth at 10^-5 M after 48 hrs by sulforhodamine B assay; type: functional; conditions: MOLT-4, 48 h, read-out: Activity
[5] = Cytotoxicity against human RPMI8226 cells assessed as cell growth at 10^-5 M after 48 hrs by sulforhodamine B assay; type: functional; conditions: RPMI-8226, 48 h, read-out: Activity
[6] = tested on: NCI-H460; experiment: Cytotoxicity against human NCI-H460 cells assessed as cell growth at 10^-5 M after 48 hrs by sulforhodamine B assay; type: functional; conditions: NCI-H460, 48 h, read-out: Activity
[7] = tested on: NCI-H522; experiment: Cytotoxicity against human NCI-H522 cells assessed as cell growth at 10^-5 M after 48 hrs by sulforhodamine B assay; type: functional; conditions: NCI-H522, 48 h, read-out: Activity
[8] = Cytotoxicity against human HCC2998 cells assessed as cell growth at 10^-5 M after 48 hrs by sulforhodamine B assay; type: functional; conditions: HCC 2998, 48 h, read-out: Activity
[9] = Cytotoxicity against human HCT15 cells assessed as cell growth at 10^-5 M after 48 hrs by sulforhodamine B assay; type: functional; conditions: HCT-15, 48 h, read-out: Activity
[10] = Cytotoxicity against human SNB19 cells assessed as cell growth at 10^-5 M after 48 hrs by sulforhodamine B assay; type: functional; conditions: SNB-19, 48 h, read-out: Activity
[11] = tested on: SK-MEL-5; experiment: Cytotoxicity against human SK-MEL-5 cells assessed as cell growth at 10^-5 M after 48 hrs by sulforhodamine B assay; type: functional; conditions: SK-MEL-5, 48 h, read-out: Activity
[12] = Cytotoxicity against human UACC257 cells assessed as cell growth at 10^-5 M after 48 hrs by sulforhodamine B assay; type: functional; conditions: UACC-257, 48 h, read-out: Activity
[13] = Cytotoxicity against human UACC62 cells assessed as cell growth at 10^-5 M after 48 hrs by sulforhodamine B assay; type: functional; conditions: UACC-62, 48 h, read-out: Activity
[14] = Cytotoxicity against human IGROV1 cells assessed as cell growth at 10^-5 M after 48 hrs by sulforhodamine B assay; type: functional; conditions: IGROV-1, 48 h, read-out: Activity
[15] = Cytotoxicity against human OVCAR4 cells assessed as cell growth at 10^-5 M after 48 hrs by sulforhodamine B assay; type: functional; conditions: OVCAR-4, 48 h, read-out: Activity
[16] = Cytotoxicity against human OVCAR5 cells assessed as cell growth at 10^-5 M after 48 hrs by sulforhodamine B assay; type: functional; conditions: OVCAR-5, 48 h, read-out: Activity
[17] = tested on: A498; experiment: Cytotoxicity against human A498 cells assessed as cell growth at 10^-5 M after 48 hrs by sulforhodamine B assay; type: functional; conditions: A498, 48 h, read-out: Activity
[18] = tested on: ACHN; experiment: Cytotoxicity against human ACHN cells assessed as cell growth at 10^-5 M after 48 hrs by sulforhodamine B assay; type: functional; conditions: read-out: Activity
[19] = Cytotoxicity against human UO31 cells assessed as cell growth at 10^-5 M after 48 hrs by sulforhodamine B assay; type: functional; conditions: UO-31, 48 h, read-out: Activity
[20] = Cytotoxicity against human PC3 cells assessed as cell growth at 10^-5 M after 48 hrs by sulforhodamine B assay; type: functional; conditions: PC-3, 48 h, read-out: Activity
[21] = tested on: T47D; experiment: Cytotoxicity against human T47D cells assessed as cell growth at 10^-5 M after 48 hrs by sulforhodamine B assay; type: functional; conditions: read-out: Activity
[22] = tested on: SR; experiment: Cytotoxicity against human SR cells after 48 hrs by sulforhodamine B assay; type: functional
[23] = cells; conditions: Homo sapiens, UACC-62, 48 h
Description: Cytotoxicity against human UACC62 cells after 48 hrs by sulforhodamine B assay

[24] = cells; conditions: Homo sapiens, OVCAR-5, 48 h
Description: Cytotoxicity against human OVCAR5 cells after 48 hrs by sulforhodamine B assay

[25] = tested on: A498; experiment: cells; conditions: Homo sapiens, A498, 48 h
Description: Cytotoxicity against human A498 cells after 48 hrs by sulforhodamine B assay

[26] = tested on: A549; experiment: cells; conditions: Homo sapiens, A549, 48 h
Description: Cytotoxicity against human A549 cells after 48 hrs by sulforhodamine B assay

[27] = cells; conditions: Homo sapiens, HOP-62, 48 h
Description: Cytotoxicity against human HOP62 cells after 48 hrs by sulforhodamine B assay

[28] = tested on: NCI-H226; experiment: cells; conditions: Homo sapiens, NCI-H226, 48 h
Description: Cytotoxicity against human NCI-H226 cells after 48 hrs by sulforhodamine B assay

[29] = cells; conditions: Homo sapiens, HCC 2998, 48 h
Description: Cytotoxicity against human HCC2998 cells after 48 hrs by sulforhodamine B assay

[30] = cells; conditions: Homo sapiens, HCT-15, 48 h
Description: Cytotoxicity against human HCT15 cells after 48 hrs by sulforhodamine B assay

[31] = tested on: KM12; experiment: cells; conditions: Homo sapiens, KM12, 48 h
Description: Cytotoxicity against human KM12 cells after 48 hrs by sulforhodamine B assay

[32] = cells; conditions: Homo sapiens, SF-539, 48 h
Description: Cytotoxicity against human SF539 cells after 48 hrs by sulforhodamine B assay

[33] = cells; conditions: Homo sapiens, SNB-19, 48 h
Description: Cytotoxicity against human SNB19 cells after 48 hrs by sulforhodamine B assay

[34] = cells; conditions: Homo sapiens, SNB-75, 48 h
Description: Cytotoxicity against human SNB75 cells after 48 hrs by sulforhodamine B assay

[35] = cells; conditions: Homo sapiens, LOX IMVI, 48 h
Description: Cytotoxicity against human LOXIMVI cells after 48 hrs by sulforhodamine B assay

[36] = tested on: MDA-MB-435; experiment: cells; conditions: Homo sapiens, MDA-MB-435, 48 h
Description: Cytotoxicity against human MDA-MB-435 cells after 48 hrs by sulforhodamine B assay

[37] = tested on: SK-MEL-28; experiment: cells; conditions: Homo sapiens, SK-MEL-28, 48 h
Description: Cytotoxicity against human SK-MEL-28 cells after 48 hrs by sulforhodamine B assay

O=C1Nc2ccccc2/C1=C/c1cn(CC(O)Cn2cc(/C=C3\C(=O)Nc4ccccc43)c3ccccc32)c2ccccc12 (stereo not drawn)
growth at 10 µM [1]: -30.6%
growth at 10 µM [2]: -10.2%
growth at 10 µM [3]: -16.7%
growth at 10 µM [4]: -29.4%
growth at 10 µM [5]: -41.7%
growth at 10 µM [6]: -65.1%
growth at 10 µM [7]: -17.4%
growth at 10 µM [8]: -16.9%
growth at 10 µM [9]: -69.8%
growth at 10 µM [10]: -43%
growth at 10 µM [11]: -80.2%
growth at 10 µM [12]: -51%
growth at 10 µM [13]: -75.2%
growth at 10 µM [14]: -67.4%
growth at 10 µM [15]: -51.7%
growth at 10 µM [16]: -34.1%
growth at 10 µM [17]: -73.2%
growth at 10 µM [18]: -68.4%
growth at 10 µM [19]: -9.18%
growth at 10 µM [20]: -86.3%
growth at 10 µM [21]: -46.1%
GI50 [22]: 0.39 µM
CC50 ([22]; read-out: LC50 (the source's name)): > 100 µM
GI50 [23]: 1.6 µM
TGI [23]: 3.1 µM
CC50 ([23]; read-out: LC50): 6.1 µM
GI50 [24]: 3.4 µM
TGI [24]: 4.5 µM
CC50 ([24]; read-out: LC50): 43.6 µM
GI50 [25]: 2.2 µM
TGI [25]: 4.1 µM
CC50 ([25]; read-out: LC50): 7.6 µM
GI50 [26]: 1.5 µM
TGI [26]: 3.2 µM
CC50 ([26]; read-out: LC50): 6.8 µM
GI50 [27]: 1.4 µM
TGI [27]: 3.06 µM
CC50 ([27]; read-out: LC50): 6.6 µM
GI50 [28]: 1.6 µM
TGI [28]: 3.5 µM
CC50 ([28]; read-out: LC50): 7.5 µM
GI50 [29]: 2.2 µM
TGI [29]: 5.2 µM
CC50 ([29]; read-out: LC50): 17.3 µM
GI50 [30]: 1.7 µM
TGI [30]: 3.7 µM
CC50 ([30]; read-out: LC50): 7.7 µM
GI50 [31]: 1.4 µM
TGI [31]: 3.3 µM
GI50 [32]: 1.5 µM
TGI [32]: 3.1 µM
CC50 ([32]; read-out: LC50): 6.1 µM
GI50 [33]: 1.2 µM
TGI [33]: 3.8 µM
CC50 ([33]; read-out: LC50): > 100 µM
GI50 [34]: 1.3 µM
TGI [34]: 2.9 µM
CC50 ([34]; read-out: LC50): 6.4 µM
GI50 [35]: 0.32 µM
TGI [35]: 1.3 µM
CC50 ([35]; read-out: LC50): 4.1 µM
GI50 [36]: 1.8 µM
TGI [36]: 3.4 µM
CC50 ([36]; read-out: LC50): 6.6 µM
GI50 [37]: 1.7 µM
TGI [37]: 3.5 µM
CC50 ([37]; read-out: LC50): 6.9 µM

CN1C(=O)C(=Cc2cn(CC(O)Cn3cc(C=C4C(=O)N(C)C(=O)N(C)C4=O)c4ccccc43)c3ccccc23)C(=O)N(C)C1=O
growth at 10 µM [1]: 98.3%
growth at 10 µM [2]: 107%
growth at 10 µM [3]: 97.3%
growth at 10 µM [4]: 106%
growth at 10 µM [5]: 86.2%
growth at 10 µM [6]: 33.1%
growth at 10 µM [7]: 108%
growth at 10 µM [8]: 104%
growth at 10 µM [9]: 105%
growth at 10 µM [10]: 102%
growth at 10 µM [11]: 97%
growth at 10 µM [12]: 127%
growth at 10 µM [13]: 88.3%
growth at 10 µM [14]: 78.8%
growth at 10 µM [15]: 97.2%
growth at 10 µM [16]: 90.5%
growth at 10 µM [17]: 98.4%
growth at 10 µM [18]: 93.7%
growth at 10 µM [19]: 63.8%
growth at 10 µM [20]: 79.6%
growth at 10 µM [21]: 91.8%
